In patent US5061728A, “Use of 4-phenyl-1,2,3,4-tetrahydro-1-naphthalenamine derivatives in the treatment of inflammation and as immunosuppressants” (Pfizer Inc., priority 1990, dated 1991):

Molecular target: sigma receptors in brain tissue
Experiment: In vitro binding: inhibition of (+)-[3H]3-PPP binding in rat whole brain membranes
Details: 3 nM (+)-[3H]3-PPP
Description: Affinity of disclosed compounds for sigma receptors in brain tissue was ascertained by the degree of inhibition of binding of the sigma site radioligand, (+)-[^3 H]3-(3-hydroxphenyl)-N-(1-propyl)piperidine ((+)-[^3 H]3-PPP) in competition experiments in vitro. These experiments were conducted by the method of Largent et al. Proc. Nat. Acad. Sec. […] Brains were removed from Sprague-DawleyCD male rats (Charles River Breeding Laboratories, Inc., Wilmington, Mass.; 200-300 g) following decapitation. Whole brain was homogenized in 25 volumes (v/w) of ice-cold 50 mM Tris (tris(hydroxymethyl)amino methane) hydrochloride pH 7.7 buffer using a Polytron PT-10 homogenizer. The pellet resulting from centrifugation of the homogenate at 45,000×g for 10 minutes at 0°-5° was washed twice by resuspension in the same volume of fresh buffer and recentrifugation. The final pellet was dispersed in 50 mM Tris hydrochloride pH 8.0 buffer (50 ml/g of original weight; "tissue preparation"). The incubation mixture in triplicate was comprised of 0.05 ml blank (10 μM pentazocine for nonspecific binding), test compound or vehicle; 0.20 ml (+)-[^3 H]3-PPP (110 Ci/mmol, NEN® DuPont; 3 nM final concentration) in 50 mM Tris hydrochloride pH 8.0 buffer; and 0.75 ml tissue preparation. The latter was added just prior to incubation of the mixture at 25° C. for 90 minutes. Afterwards, the mixture was diluted with 2.5 ml 10 mM Tris hydrochloride pH 7.7 buffer and filtered under vacuum through a Whatman GF/B glass-fiber filter (pretreated with 1% polyethyleneimine) in a Brandell cell harvester to recover the membranes. The filter was washed twice with the diluent buffer and placed in 10 ml Aquasol-2 (NEN® DuPont Co.) for determination of bound radioactivity in a liquid scintillation counter.

Row | SMILES | IC50 (Table 2, enantiomers) | IC50 (Table 1, racemates)
1 | N[C@H]1CC[C@@H](c2ccc(Cl)c(Cl)c2)c2ccccc21 [(+)-1S, 4S 3,4-diCl NH2, Cis(1S) (4S)-amino-4-(3,4-dichlorophenyl)-1,2,3,4-tetrahydro-1-naphthalenamine] | 58 nM | –
2 | CN[C@H]1CC[C@H](c2ccc(C(F)(F)F)cc2)c2ccccc21 (relative stereo) [(±)-trans 4-CF3 NHCH3] | – | 39 nM
3 | CN[C@H]1CC[C@@H](c2ccc(Cl)c(C(F)(F)F)c2)c2ccccc21 (relative stereo) [(±)-cis 3-CF3,4-Cl NHCH3] | – | 11 nM
4 | CN(C)[C@H]1CC[C@H](c2ccc(Cl)c(Cl)c2)c2ccccc21 (relative stereo) [(±)-trans 3,4-diCl N(CH3)2] | – | 30 nM
5 | CN[C@H]1CC[C@@H](c2ccc(C(F)(F)F)cc2)c2ccccc21 (relative stereo) [(±)-cis 4-CF3 NHCH3] | – | 5.9 nM
6 | CN[C@H]1CC[C@@H](c2ccc(Cl)cc2Cl)c2ccccc21 (relative stereo) [(±)-cis 2,4-diCl NHCH3] | – | 29 nM
7 | CN(C)[C@H]1CC[C@@H](c2ccc(Cl)c(Cl)c2)c2ccccc21 (relative stereo) [(±)-cis 3,4-diCl N(CH3)2] | – | 44 nM
8 | CN[C@H]1CC[C@@H](c2ccc(Cl)c(C(F)(F)F)c2)c2ccccc21 [(+)-1S, 4S 3-CF3,4-Cl NHCH3, Cis(1S) (4S)-N-methyl-4-(3-trifluoromethyl, 4-chloro-phenyl)-1,2,3,4-tetrahydro-1-naphthalenamine] | 17 nM | –
9 | CN[C@H]1CC[C@H](c2cccc(C(F)(F)F)c2)c2ccccc21 (relative stereo) [(±)-trans 3-CF3 NHCH3] | – | 16 nM
10 | CN[C@H]1CC[C@H](c2ccc(Br)cc2)c2ccccc21 (relative stereo) [(±)-trans 4-Br NHCH3] | – | 85 nM
11 | CN[C@H]1CC[C@@H](c2ccc(Cl)cc2)c2ccccc21 [(+)-1S, 4S 4-Cl NHCH3, Cis(1S) (4S)-N-methyl-4-(4-chlorophenyl)-1,2,3,4-tetrahydro-1-naphthalenamine] | 8.7 nM | –
12 | CN[C@H]1CC[C@@H](c2ccc(Br)cc2)c2ccccc21 (relative stereo) [(±)-cis 4-Br NHCH3] | – | 13 nM
13 | CN[C@H]1CC[C@H](c2ccc(F)cc2)c2ccccc21 (relative stereo) [(±)-trans 4-F NHCH3] | – | 66 nM
14 | CN[C@H]1CC[C@@H](c2ccc(Cl)cc2)c2ccccc21 (relative stereo) [(±)-cis 4-Cl NHCH3] | – | 33 nM
15 | CN[C@H]1CC[C@H](c2ccc(Cl)c(C(F)(F)F)c2)c2ccccc21 (relative stereo) [(±)-trans 3-CF3,4-Cl NHCH3] | – | 31 nM
16 | CN(C)[C@H]1CC[C@@H](c2ccc(Cl)c(Cl)c2)c2ccccc21 [(+)-1S, 4S 3,4-diCl N(CH3)2, Cis(1S) (4S)-N,N-dimethyl-4-(3,4-dichlorophenyl)-1,2,3,4-tetrahydro-1-naphthalenamine] | 28 nM | –
17 | CN[C@H]1CC[C@H](c2ccc(Cl)cc2)c2ccccc21 (relative stereo) [(±)-trans 4-Cl NHCH3] | – | 75 nM
